# Data: patent US9757477B2, “Imaging brown adipose tissue with curcumin derivatives” (The General Hospital Corporation, priority 2013, dated 2017)
# “Also recorded” adds a separate entry of the source.
# How the values were obtained:
# [1] = Excitation and emission wavelengths of BAT imaging agents; type: physicochemical
# Method: In some embodiments, the methods include irradiating the mammal with light of the appropriate wavelength to excite the BAT imaging agent, and detecting emissions therefrom.
# Fluorescent dyes were purchased from Exciton Inc. (Dayton, Ohio) and Invitrogen. The reagents used for the synthesis were purchased from Aldrich and used without further purification. Column chromatography was performed on silica gel (SiliCycle Inc., 60 Å, […]) slurry packed into glass columns. 1H, 13C NMR spectra were recorded at 500 MHz and 125 MHz respectively, and reported in ppm downfield from tetramethylsilane. Fluorescence studies were carried out using a F-4500 Fluorescence Spectrophotometer (Hitachi). Mass spectra were obtained at Harvard University, Department of Chemistry Instrumentation Facility. Microscopic images were acquired with Nikon Eclipse 50i microscope. In vivo NIR imaging was performed using the IVIS® Spectrum animal imaging system (Caliper LifeSciences, Perkin Elmer, Hopkinton, Mass.), and data analysis was conducted using LivingImage® 4.2.1 software.
# interscapular BAT [2] = assay: Top-down whole-organism NIR fluorescence screening of dyes (ROI1/ROI2 contrast); type: in vivo, nude mice; settings: for Ratio No 1 (ROI1/ROI2 average fluorescence intensity) / Ratio No 2 (ROI1/ROI2 average fluorescence intensity) / Ratio No 3 (ROI1/ROI2 average fluorescence intensity) / Ratio AVERAGE (mean ratio ROI1/ROI2): nude mice, one hour post-injection; for Ratio No 1 (ROI1/ROI2 average fluorescence intensity) / Ratio No 2 (ROI1/ROI2 average fluorescence intensity) / Ratio No 3 (ROI1/ROI2 average fluorescence intensity): 10 μg/mouse i.v.; for Ratio No 1 (ROI1/ROI2 average fluorescence intensity): first excitation/emission filter pair; for Ratio No 2 (ROI1/ROI2 average fluorescence intensity): second excitation/emission filter pair; for Ratio No 3 (ROI1/ROI2 average fluorescence intensity): third excitation/emission filter pair; for Ratio AVERAGE (mean ratio ROI1/ROI2): i.v., mean of three filter pairs, hit threshold >1.10
# Method: 38 fluorescent dyes from commercial resources and from the inventors' laboratory were screened. Dyes with excitation range of 550-745 nm, emission range of 600-840 nm, and with molecular weight of less than 700 Da (except Cy5.5) (representative dyes are listed in FIG. 1d and the full list is shown in Table 2). Their hydrophobicities were not determined. The library was screened by intravenous tail injection of compounds into nude mice (10μg/mouse). Each dye was imaged with three optimized excitation/emission filter-pairs, and images at one hour after i.v. injection were acquired.
# Top-down whole organism screening was performed as follows. Nude mice (nu/nu COX7) were purchased from Massachusetts General Hospital and Balb/c mice were from Jackson Laboratory. All animal experimental procedures were approved by the Institutional Animal Care and Use Committee (IACUC) at Massachusetts General Hospital. Dye stock solutions were prepared in DMSO. The final injection solution (0.1 mg/ml) was freshly prepared in a mixed solution of 20% DMSO, 20% Cremophor EL and 60% saline. Nude mice (n=5) were injected with a 100 μL dye solution via tail vein. For each imaging session, mice were anesthetized with a mixture of oxygen and isoflurane for 5 minutes, and then positioned into the imaging chamber of IVIS® Spectrum in vivo pre-clinical imaging system. Images were acquired at one-hour post-injection using sequence imaging with three excitation/emission filter pairs for each dye.
# Hits selection was performed as follows. Hits from cell- or protein-based screening are usually selected by setting certain threshold. In the case of the top-down imaging screening, two methods were used (threshold and visible contrast) to select hits. First, three images obtained with three excitation/emission pairs were selected for each dye. These ex/em pairs were selected from the closest excitation and emission wavelengths of the tested dyes. For instance, 605/660 nm, 605/680 nm, 640/680 nm were selected for image acquisition of Nile blue (625/660 nm). The quantification of contrast for each image was calculated as a ratio of two ROIs (region of interest). ROI1 reflected the average signal from interscapular BAT and ROI2 was the average signal of the area that included BAT and white adipose tissue (WAT) around the interscapular site (FIG. 1b, left). The averaged fluorescent signal of ROI was used instead of the total signal, because the total signal depends on the area of ROI, whereas the averaged signal reflects the density of signal. The ratio of ROI1/ROI2 could reflect the signal/noise ratio of the tested probe, and could also reflect the selectivity of the probe for BAT over WAT. For each dye, three ROI1/ROI2 ratios obtained with the three filter pairs were calculated. The mean of the ratios was used as the threshold. If the mean ratio was >1.10, the dye was selected as a potential positive hit (FIG. 1c). Since the contrast of a dye in the top-down screening is in the visible range, the visible contrast around the interscapular BAT area was also tested for the hits with the mean ratio of >1.10. If both mean ratio and the visible contrast were positive, then the hit was subjected to re-testing procedure to validate its reliability as described below.
# Although CRANAD-2 and CRANAD-3 were able to provide certain contrast for BAT in vivo, their excitation and emission wavelengths were still shorter than required for an ideal NIR imaging probe (both excitation and emission >640 nm). […] To seek better probes, a sub-library was synthesized based on the structures of the lead probes CRANAD-2 and -3. CRANAD-6, -19, -22, -24, -26, -32 and -43 were synthesized and tested (images and chemical structures, excitation and emission spectra are shown in FIG. 9 a-e). […] However, the ROI1/ROI2 ratio of CRANAD-22 was not improved (FIG. 9c).
# interscapular BAT [3] = assay: Re-testing of hits with stepwise dissection and NIR imaging; type: in vivo, mice; settings: stepwise dissection
# Method: Like protein/cell-based screening, hit re-testing experiments were conducted to validate the reliability of this approach. CRANAD-2, -3, LDS 722 and Rhodamine 640 were subjected to re-testing by repeating the above imaging procedure. Images were acquired one hour after probe injection.
# Next, stepwise dissection and imaging were performed to track the source of the fluorescence contrast at the interscapular site. Skin and the thin WAT layer that covers BAT were first removed, and then BAT was dissected, and NIR images were captured at each step. […] The signal contribution from BAT (R(BAT)) was roughly estimated using the ratio of fluorescence signals acquired after (F(BAT)) and before (F(intact)) the first step dissection of skin and WAT.
Compound,Emission λ [1],Excitation λ [1],visible contrast around the interscapular BAT area (interscapular BAT [2]; in vivo NIR images),"ROI1/ROI2 ratio compared with lead probe (interscapular BAT [2]; sub-library probes, compared with CRANAD-2)",selectivity for BAT (over WAT) (interscapular BAT [3]),Ratio No 1 (ROI1/ROI2 average fluorescence intensity) (interscapular BAT [2]),Ratio No 2 (ROI1/ROI2 average fluorescence intensity) (interscapular BAT [2]),Ratio No 3 (ROI1/ROI2 average fluorescence intensity) (interscapular BAT [2]),Ratio AVERAGE (mean ratio ROI1/ROI2) (interscapular BAT [2])
CN(C)c1ccc(/C=C/C2=CC(/C=C/c3ccc(N(C)C)c4ccccc34)=[O+][B-](F)(F)O2)c2ccccc12 [CRANAD-6],750 nm,620 nm,–,–,–,–,–,–,–
F[B-]1(F)OC(/C=C/c2c(-c3ccccc3)[nH]c3ccccc23)=CC(/C=C/c2c(-c3ccccc3)[nH]c3ccccc23)=[O+]1 [CRANAD-26],637 nm,587 nm,–,–,–,–,–,–,–
CN(C)c1ccc(/C=C/C=C/C2=CC(/C=C/C=C/c3ccc(N(C)C)cc3)=[O+][B-](F)(F)O2)cc1 [CRANAD-43],700 nm,640 nm,best contrast,higher,not significantly increased; also recorded: poor selectivity,–,–,–,–
N=c1cc2oc3cc(N)ccc3nc-2c2ccccc12 [Cresyl Violet],–,–,–,–,–,9.56E−01,9.72E−01,1.02E+00,9.81E−01
CCN1/C(=C/C=C/C=C/c2oc3ccccc3[n+]2CC)Oc2ccccc21.[I-] [DODC],–,–,–,–,–,1.08E+00,1.09E+00,1.10E+00,1.09E+00
CCN1/C(=C/C=C/C=C/C=C/c2oc3ccccc3[n+]2CC)Oc2ccccc21.[I-] [DOTC],–,–,–,–,–,9.48E−01,9.44E−01,9.52E−01,9.48E−01
CN1C(=CC=CC=CC2=[N+](C)c3ccccc3C2(C)C)C(C)(C)c2ccccc21.[I-] [HIDC],–,–,–,–,–,1.01E+00,1.01E+00,1.02E+00,1.01E+00
CN1C(=CC=CC=CC=CC2=[N+](C)c3ccccc3C2(C)C)C(C)(C)c2ccccc21.[I-] [HITC],–,–,–,–,–,1.07E+00,1.02E+00,1.06E+00,1.05E+00
CC1(C)C(/C=C/C=C/C=C/C=C2\N(CCCCS(=O)(=O)[O-])c3ccc4ccccc4c3C2(C)C)=[N+](CCCCS(=O)(=O)[O-])c2ccc3ccccc3c21.[Na+] [IR125],–,–,–,–,–,8.65E−01,9.76E−01,8.49E−01,8.97E−01
CN1/C(=C/C=C2\CCCC(/C=C/C3=[N+](C)c4ccc5ccccc5c4C3(C)C)=C2Cl)C(C)(C)c2c1ccc1ccccc21.Cc1ccc(S(=O)(=O)[O-])cc1 [IR813],–,–,–,–,–,1.08E+00,9.91E−01,1.08E+00,1.05E+00
